Measured values reported in US20040068005A1, “Pharmaceutical combinations” (priority 2000, published 2004).

Experiments:
normal conscious rabbits [1] = assay: Hyperinsulinaemic euglycaemic glucose clamping (insulin sensitivity), normal rabbits; type: in vivo, New Zealand white rabbits
Experimental: (§1) The experiments are carried out with adult, male New Zealand white rabbits, weighing 3.0-3.5 kg, housed as described in Am. J. Physiol 1994, Heart Circ. Physiol, 35: H2033-H2041 and J. Moll Cell.. Cardiol. 1997, 29: 1977-1983.
(§2) To estimate insulin sensitivity and/or insulin resistance, hyperinsulinaemic (100 eU/ml) euglycaemic (5.5 mM/l) glucose clamping was used. The glucose clamping values (M) were established as values of glucose infusion rates expressed in mg/kg/min to maintain blood glucose level at 5.5 mM/l.

human = details: controlled release ISMN preparations; cited from earlier work
normal conscious rabbits [2] = assay: Ventricular pacing-induced myocardial ischaemia (ST-segment elevation), normal rabbits; type: in vivo, New Zealand white rabbits
Experimental: (§3) The experiments are carried out with adult, male New Zealand white rabbits, weighing 3.0-3.5 kg, housed as described in Am. […] Physiol, 35: H2033-H2041 and J. Moll Cell.. Cardiol.
(§4) The induction of global myocardial ischaemia was based on a method described as above.

[3] = tested on: hypercholesterolaemic, insulin resistant conscious rabbits; assay: Hyperinsulinaemic euglycaemic glucose clamping (insulin sensitivity), hypercholesterolaemic rabbits; type: in vivo, New Zealand white rabbits; details: for Glucose infusion rate / M values of hyperinsulinaemic and euglycaemic glucose clamping: hypercholesterolaemic; for Glucose infusion rate: insulin resistant rabbit; for Insulin sensitivity: percent of means, control = 100
Experimental: as §3, §2

[4] = tested on: hypercholesterolaemic, insulin resistant rabbits; assay: Femoral nerve conduction velocity, hyperlipidaemia-induced insulin resistance; type: in vivo, New Zealand white rabbits
Experimental: as §3
These series of experiments were carried out to verify/exclude sensory neuropathy.

[5] = tested on: streptozotocin diabetic rabbits; assay: Femoral nerve conduction velocity, streptozotocin diabetes; type: in vivo, New Zealand white rabbits
Experimental: as §1
These series of experiments were carried out to verify/exclude sensory neuropathy. Left saphenous nerve conduction velocity was determined as described in Eur J. Pharmacol 1999, 386:83-88.
Streptozotocin (40 mg/kg i.v.) produced a decrease in nerve conduction velocity in femoral “A” and “C” fibres, respectively, as determined 8 weeks after streptozotocin injection. […] The combination of any of these drugs with nitroglycerin yielded an improvement of conduction velocity in streptozotocin-diabetic aminals similar to that seen with nitroglycerin alone.

[6] = tested on: hypercholesterolaemic, insulin resistant conscious rabbits; assay: Ventricular pacing-induced myocardial ischaemia (ST-segment elevation), hypercholesterolaemic rabbits; type: in vivo, New Zealand white rabbits; details: hypercholesterolaemic
Experimental: as §3, §4

healthy volunteers = assay: Oral glucose tolerance test (OGTT) with nitroglycerin patch, plasma glucose and immunoreactive insulin; type: in vivo, human; details: for Insulin / Glucose: OGTT
Experimental: Twenty persons were studied.
Between 2 oral glucose, tolerance tests (OGTT) the volunteers were randomized for receiving either active NITRODERM TTS 10 (releasing approx. 0.4 mg hours^−1 nitroglycerin) or placebo patches. The study was carried out and evaluated in a double blind fashion. The patients received the glucose solution at 8 a.m. Venous blood samples were taken during fasting (immediately before glucose) and at 15, 30, 60, 90, 120 and 180 minutes after the glucose load. The samples evaluated for plasma glucose level (mmol 1^−1) and immunoreactive insulin responses (eU ml^−1). Plasma glucose was determined by means of an autoanalyzer, using the glucoseoxidease method. Immunoreactive insulin levels were assessed by radioimmunoassay method using antihuman antibody. During the study, two ECG leads (II and V1 or V6) and arterial blood pressure were continuously monitored.

[7] = tested on: isolated pancreatic islets; details: Am. J. Physiol 1996;271;C1098-C1102; cited from earlier work
[8] = normal rabbits, 2 mg/kg per os ISMN
[9] = normal rabbits, 2 mg/kg per os controlled release ISMN
[10] = normal rabbits, 4 mg/kg per os controlled release ISMN
[11] = sampling 0 (control), active patch approx. 0.4 mg/hour nitroglycerin, n=20
[12] = Table I, sampling 0 (control), active patch

For `O=[N+]([O-])O[C@@H]1CO[C@H]2[C@@H]1OC[C@@H]2O` [ISMN, isosorbide-5-mononitrate], the Glucose infusion rate (normal conscious rabbits [1]; normal rabbit, metformin 100 mg/kg p.os, ISMN controlled release 5 mg/kg p.os) was 16.30 ± 0.8200 mg/kg/min, the “metabolic (insulin sensitising) and anti-ischaemic effect” value (normal conscious rabbits [1]; normal rabbits, 1 mg/kg per os ISMN) was “without any effect” and the Glucose infusion rate (normal conscious rabbits [1]; normal rabbits, 1 mg/kg per os controlled release ISMN, control 13.6) was 14.2 ± 0.8 mg/kg/min. The “metabolic (insulin sensitising) effect” value (normal conscious rabbits [1]; [8]) was “significant metabolic effect”, the Glucose infusion rate (normal conscious rabbits [1]; [9]) was 16.0 ± 0.9 mg/kg/min and the “metabolic and anti-ischaemic effects” value (normal conscious rabbits [1]; normal rabbits, 4 mg/kg and higher doses per os ISMN) was “metabolic and anti-ischaemic effects”. The Glucose infusion rate (normal conscious rabbits [1]; [10]) was 16.3 ± 1.0 mg/kg/min, the “M values of hyperinsulinaemic and euglycaemic glucose clamping” value (from here on “M values”) (normal conscious rabbits [1]; normal rabbits, drug alone vs control, isosorbide-5-mononitrate 1 mg/kg/day (Olicard 40), metformin 100 mg/kg/day p.os over 3 days) was “increased” and the “threshold dose of insulin sensitising effect as share of the threshold dose of the anti-ischaemic effect” value (normal conscious rabbits [1]; normal rabbits, per os ISMN) was 50%. The “threshold dose of the insulin sensitising effect” value (normal conscious rabbits [1]; normal rabbits, per os extended-release ISMN) was 2 mg/kg, the threshold anti-anginal dose (human) was 30 mg/day and the ST-segment elevation (normal conscious rabbits [2]; normal rabbits, 1 mg/kg per os controlled release ISMN, control 2.0) was 2.0 ± 0.09 mV. For the same molecule, the “anti-ischaemic effect (changes in ST-segment elevation)” value (normal conscious rabbits [2]; [8]) was “statistically insignificant anti-ischaemic effect”, the ST-segment elevation (normal conscious rabbits [2]; [9]) was 1.9 ± 0.16 mV and the ST-segment elevation (normal conscious rabbits [2]; [10]) was 1.4 ± 0.12 mV. For the same molecule, the Glucose infusion rate ([3]; metformin 100 mg/kg p.os, ISMN controlled release 5 mg/kg p.os) was 14.00 ± 0.8900 mg/kg/min, the “M values” value ([3]; insulin resistant rabbits vs control, ISMN 5 mg/kg/day (Olicard 40), metformin 100 mg/kg/day p.os over 3 days) was “significantly increased” and the Insulin sensitivity ([3]; ISMN controlled release 5 mg/kg p.os, metformin 100 mg/kg p.os) was 144.4%.
For `O=[N+]([O-])OCC(CO[N+](=O)[O-])O[N+](=O)[O-]` [Nitroglycerin, nitroglycerin], the “decrease in nerve conduction velocity in “C” fibres after atherogenic diet” value ([4]; eight-week atherogenic diet, drug alone) was “attenuated”, the Nerve conduction velocity ([4]; femoral “C” fibers, hypercholesterolaemic, insulin resistant rabbit, with active patch (nitroglycerin 0.07 mg/kg/h), alone (Control) or with troglitazon 70 mg/kg p.os) was 4.3 ± 0.4 dm/s and the Glucose infusion rate (normal conscious rabbits [1]; normal rabbit, with active patch (nitroglycerin 0.07 mg/kg/h), alone (Control) or together with the drug, troglitazon 70 mg/kg p.os, metformin 5 mg/kg i.v., glibenclamide 1 mg/kg i.v., idazoxan 2 mg/kg i.v.) was 16.857 mg/kg/min. For the same molecule, the “intracavitary ST-segment elevation” value (normal conscious rabbits [2]; normal conscious rabbits, drug alone) was “significantly decreased”, the ST-segment elevation (normal conscious rabbits [2]; normal rabbit, with active patch (nitroglycerin 0.07 mg/kg/h), alone (Control) or with the drug) was 0.7 ± 0.10 mV and the Nerve conduction velocity ([5]; femoral “C” fibers, streptozotocin diabetic rabbit, with active patch (nitroglycerin 0.07 mg/kg/h), alone (Control) or with the drug) was 3.6 ± 0.2 dm/s. For the same molecule, the “nerve conduction in “C” fibres” value ([5]; streptozotocin-diabetes model, drug alone, nitroglycerin 12-h patch on vs 12-h patch off over three days) was “significantly improved”, the ““A” fibre conduction” value ([5]; streptozotocin-diabetes model, nitroglycerin patch, data not shown) was “marginal amelioration” and the ST-segment elevation ([6]; insulin resistant rabbit, with active patch (nitroglycerin 0.07 mg/kg/h), alone (Control) or with the drug) was 1.4 ± 0.10 mV. For the same molecule, the “intracavitary ST-segment elevation / ischaemic changes produced by VOP” value ([6]; insulin resistant rabbits, drug alone) was “significantly decreased”, the Glucose infusion rate ([3]; with active patch (nitroglycerin 0.07 mg/kg/h), alone (Control) or together with the drug, same doses) was 12.667 mg/kg/min and the “M values” value ([3]; insulin resistant rabbits, nitroglycerin (0, 0.7 mg/kg/h) alone) was “increased”. For the same molecule, the Insulin sensitivity ([3]; nitroglycerin patch 0.07 mg/kg/h, metformin 5 mg/kg i.v., troglitazon 70 mg/kg p.os) was 140.7%, the Insulin (healthy volunteers; 15 min, active patch) was 38.9 ± 4.4^#+ μU ml^−1 and the Glucose (healthy volunteers; 15 min after glucose load, active patch) was 7.3 ± 1.1^+ mmol l^−1. For the same molecule, the Glucose (healthy volunteers; 30 min, active patch) was 6.1 ± 0.6^+ mmol l^−1, the Insulin (healthy volunteers; 30 min, active patch) was 36.3 ± 5.0^#+ μU ml^−1 and the Glucose (healthy volunteers; 60 min, active patch) was 5.5 ± 0.4 mmol/L. The Insulin (healthy volunteers; 60 min, active patch) was 25.6 ± 3.3^#+ μU ml^−1, the Glucose (healthy volunteers; 90 min, active patch) was 4.7 ± 0.7 mmol/L and the Insulin (healthy volunteers; 90 min, active patch) was 24.1 ± 2.9^#+ μU ml^−1. For the same molecule, the Glucose (healthy volunteers; 120 min, active patch) was 4.2 ± 0.3 mmol/L, the Insulin (healthy volunteers; 120 min, active patch) was 15.2 ± 2.4^+ μU ml^−1 and the Glucose (healthy volunteers; 180 min, active patch) was 4.5 ± 0.5 mmol/L. The Insulin (healthy volunteers; 180 min, active patch) was 14.4 ± 2.6^ μU ml^−1, the Glucose (healthy volunteers; [11]) was 4.2 ± 0.3 mmol/L and the Insulin (healthy volunteers; [11]) was 8.2 ± 0.9^ μU ml^−1. The Glucose (healthy volunteers; Table I, 15 min, active patch) was 7.3 ± 1.1 mmol⁻¹, the Insulin (healthy volunteers; Table I, 15 min, active patch) was 38.9 ± 4.4 μU mL^−1 and the Glucose (healthy volunteers; Table I, 30 min, active patch) was 6.1 ± 0.6 mmol⁻¹. For the same molecule, the Insulin (healthy volunteers; Table I, 30 min, active patch) was 36.3 ± 5.0 μU mL^−1, the Glucose (healthy volunteers; Table I, 60 min, active patch) was 5.5 ± 0.4 mmol⁻¹ and the Insulin (healthy volunteers; Table I, 60 min, active patch) was 25.6 ± 3.3 μU mL^−1. It also gave a Glucose (healthy volunteers; Table I, 90 min, active patch) of 4.7 ± 0.7 mmol⁻¹, an Insulin (healthy volunteers; Table I, 90 min, active patch) of 24.1 ± 2.9 μU mL^−1 and a Glucose (healthy volunteers; Table I, 120 min, active patch) of 4.2 ± 0.3 mmol⁻¹. It also gave an Insulin (healthy volunteers; Table I, 120 min, active patch) of 15.2 ± 2.4 μU mL^−1, a Glucose (healthy volunteers; Table I, 180 min, active patch) of 4.5 ± 0.5 mmol⁻¹ and an Insulin (healthy volunteers; Table I, 180 min, active patch) of 14.4 ± 2.6 μU mL^−1. For the same molecule, the Glucose (healthy volunteers; [12]) was 4.2 ± 0.3 mmol⁻¹, the Insulin (healthy volunteers; [12]) was 8.2 ± 0.9 μU mL^−1 and the plasma glucose levels (healthy volunteers; active vs placebo patch group) was “no differences”. For the same molecule, the “increase in insulin in response to oral glucose load” value (healthy volunteers; compared to placebo patch group) was “significantly decreased”.
For `N=c1c[n+](N2CCOCC2)[n-]o1` [SIN-1, 3-morpholinosydnonimine], the insulin release [7] is listed as “inhibit insulin release”.
